Like-named read-outs stand apart in the source and are kept apart here.
Legend:
[1] = test system: zebrafish intersegmental vessels; assay: Angiogenesis in transgenic Tg (VEGFR2:GFP) zebrafish (intersegmental vessels); format: in vivo; details: for Length of Blood Vessels / Number of Blood Vessels: zebrafish ISV
Protocol: The transgenic Tg (VEGFR2:GFP) zebrafishes were cultured under the standard conditions of illumination for 14 hours/dark for 10 hours at 28° C. Healthy and mature zebrafishes were put into a breeding container at a ratio of female to male 1/1 or 1/2 for mating. The fertilized eggs were obtained at 9 to 10 o'clock the next day. The fertilized eggs were sterilized and washed, then transferred to zebrafish embryo culture medium and cultured at 28° C.
Drug solution was added to a 24-well culture plate, and 24 hpf embryos were carefully transferred to wells, 8-10 per well, and culture medium was added until a total volume of 2 ml to make sure that the final concentration of DMSO in the medium was not higher than 1%. After 24-hour drug treatment, the embryos were observed under a fluorescence microscope, and the total number of intersegmental vessels in trunk and tail were counted, and the relative generation rate of ISV in each administration group was calculated. Analysis of variance between groups was performed using SPSS software.

[2] = test system: human platelet aggregation induced by ADP; assay: ADP-induced normal human platelet aggregation, turbidimetry; format: cell-based; details: human PRP, ADP 3 μmol/L, compared with ADP alone (Ctrl), FIG. 6
Protocol: (§1) The whole blood samples of healthy volunteers were collected into the anticoagulant tubes and centrifuged at 800 g for 5 minutes at room temperature. The light yellow supernatant was the platelet-rich plasma (PRP); the remaining solution was further centrifuged at 4000 g for 10 minutes at room temperature, and the supernatant obtained was platelet-poor plasma (PPP).
(§2) PRP was adjusted to 3×10^5 platelets/μl with PPP, 300 μl of adjusted PRP was added to 30 μl of PBS or different concentrations of IDHP and incubated at 37° C. for 3 minutes in a blood coagulation apparatus. Collagen or ADP at a final concentration of 3 μmol/L was added to initiate the aggregation reaction of platelets. The inhibitory effect of IDHP and clopidogrel on platelet aggregation was determined by turbidimetry.

[3] = test system: human platelet aggregation induced by collagen; assay: Collagen-induced normal human platelet aggregation, turbidimetry; format: cell-based; details: human PRP, collagen 3 μmol/L, compared with collagen alone (Ctrl), P<0.001, FIG. 6
Protocol: as §1, §2

mice [4] = assay: Acute toxicity test in mice with slow administration (tail vein); format: in vivo
Protocol: (§3) 4.2 Acute Toxicity Test in Mice with Slow Administration
(§4) After housing in the laboratory for 1 day, the test mice with qualified body weight were selected and randomly divided into groups according to body weight and sex, 10 for each group, half male and half female. According to the result of premeasurement, the absolute lethal dose was 2.4 g/kg. The mice were subjected to tail vein administration, the dose for the mice was calculated according to body weight. The doses were 2.4 g/kg, 2.2 g/kg, 2.0 g/kg, and 1.8 g/kg, respectively, and the drug delivery rate was calculated. The administration was completed within 10 minutes. The reactions of the mice were observed after the administration and the death of the mice was recorded within 14 days.
(§5) The main toxic reactions after intravenous administration were central inhibition, respiratory failure, etc. Most of the death occurred during the administration period. […] After 14 days of observation, the mortality rate of the mice was calculated.

[5] = as above; format: in vivo; details: both sexes, mouse, in vivo, intravenous, mice, tail vein, administration completed within 10 minutes, 14 days observation
Protocol: as §3, §4, §5

[6] = test system: primary human umbilical vein endothelial cells (HUVEC); assay: Tube formation of HUVEC, Matrigel gel method; format: cell-based; details: 8 hours on Matrigel, compared with Ctrl control group
Protocol: 1.3 Detect Tube Formation of Human Umbilical Vein Endothelial Cells (HUVEC) Promoted by IDHP—Matrigel Gel Method
Pipette tips and 96-well plate were pre-cooled at −20° C. Matrigel gel was placed on ice and melted, and then added to the pre-cooled 96-well plate (60 μl/well). Avoid the formation of air bubbles. The plate was placed on ice for 5 minutes to level the Matrigel gel, and then put into a cell culture incubator for 30 minutes to solidify. Endothelial cells were added to the wells (5×10^4 cells/well) containing Matrigel gel, and fresh medium containing different concentrations of the drug was added, incubated at 37° C. for 8 hours. The plate was observed under a microscope, 5 fields of view were chosen at 0, 3, 6, 9 o'clock positions and the center of each well, the number of tubules and the integrity of the tubular structure were observed and images were acquired.

[7] = test system: human umbilical vein endothelial cells (HUVEC); assay: Proliferation of human umbilical vein endothelial cells, CCK-8 method; format: cell-based; details: 10^−9 to 10^−7 M, 48 hours, compared with blank control, P<0.01, FIG. 1
Protocol: 1.1 Detect Proliferation of Human Umbilical Vein Endothelial Cells Promoted by IDHP—CCK-8 Method
Human umbilical vein endothelial cells were seeded in a 96-well plate at a density of approximately 2,500 cells per well. After the cells were culture for 24 hours, the medium was changed for a fresh medium containing drug, 100 μl/well, and the cells were continued culturing for 48 hours. 2 hours before the end of drug treatment, CCK-8 reagent was added to the culture medium in the dark, 10 μl per well. The culture was continued for 2 hours, and then the absorbance at 450 nm was determined with a microplate reader to calculate the cell proliferation rate.

mice [8] = assay: Acute toxicity test in mice with rapid administration (IV); format: in vivo
Protocol: (§6) 4.1 Acute Toxicity Test in Mice with Rapid Administration
(§7) Sixty mice were used, half male and half female, and randomly divided into 6 groups. […] The spacing between the concentrations was 1:0.9. After the animals were fasted for 12 hours, each group was subjected to IV administration, the volume was 20 ml/kg, and the administration was completed within 5 seconds for each animal.

[9] = as above; format: in vivo; details: both sexes, mouse, in vivo, iv, mice, IV, administration completed within 5 seconds
Protocol: as §6, §7

red blood cells = assay: Hemolysis assay; format: cell-based, domestic rabbit; details: rabbit 2% red blood cells, IDHP groups 2 to 10 (10^−3 mol/l), 37±0.5° C., 0.5 h to 3 h
Protocol: Arterial blood from domestic rabbit was collected, fibrin was removed, red blood cells were washed with physiological saline and then formulated into a 2% red blood cell physiological saline solution. The test was operated according to Table 4, four parallel test tubes in each group.
After the above operation, the tubes were put in water bath at 37±0.5° C., one tube from each group was taken at 0.5 h, 1 h, 2 h and 3 h respectively, centrifuged at 3000 rpm for 15 minutes. Red blood cell hemolysis was observed, at the same time, the morphology of red blood cells was observed under light microscope.

[10] = test system: human umbilical vein endothelial cells (HUVEC); assay: Migration of HUVEC, scratch method; format: cell-based; details: 10^−10 to 10^−7 M, 16 hours, FIG. 2
Protocol: 1.2 Detect Migration of Human Umbilical Vein Endothelial Cells (HUVEC) Promoted by IDHP—Scratch Method
Endothelial cells were seeded on a cover slip pre-coated with gelatin in a 24-well plate at a density of about 10^5 cells per well. After the cells attached to the cover slip and reached confluence, cells were starved in a medium without serum for 4 hours. A home-made tool was used to make scratch on the cover slip with cells. The cover slip was washed twice with PBS, and a medium containing drug was added, 600 μl/well. Control group was immediately fixed with ice-cold methanol at zero time point; rest of the cells were cultured for 16 hours, and then fixed with ice-cold methanol. Images were acquired under a microscope and subjected to statistics analysis.

Question: What does the source list for VEGF?
Answer: Length of Blood Vessels ([1]; 10 ng/ml): 420.0 ± 54.2 μm; Number of Blood Vessels ([1]; 10 ng/ml): 29.3 ± 3.3

Question: Which “inhibitory effect on ADP-induced platelet aggregation” value [2] does the source give for `COC(=O)[C@H](c1ccccc1Cl)N1CCc2sccc2C1` [clopidogrel, reference compound] here?
Answer: significantly inhibited

Question: With `CC(C)OC(=O)C(O)Cc1ccc(O)c(O)c1` (stereo not drawn) [IDHP, β-(3,4-dihydroxyphenyl)-α-hydroxyisopropyl propionate] as the compound, how does the “inhibitory effect on collagen-induced platelet aggregation” value [3] read?
Answer: more significant

Question: What about the absolute lethal dose (mice [4]; mice, premeasurement) of the same compound?
Answer: 2400 mg/kg

Question: What about the anatomy findings (mice [4]; mouse, in vivo) of the same compound?
Answer: No abnormal changes

Question: And the LD50 at 14 days ([5]; read-out: LD50 95% confidence limit)?
Answer: 1960 to 2140 mg/kg

Question: And the LD50 at 14 days ([5]; read-out: LD50 (Bliss method))?
Answer: 2050 mg/kg

Question: And the “tube formation of primary HUVEC” value [6]?
Answer: significantly promoted

Question: What about the “proliferation of vascular endothelial cell” value [7] of the same compound?
Answer: significantly promoted

Question: And the “growth of intersegmental vessels and posterior longitudinal blood vessels in zebrafish” value ([1]; 0.01, 0.1 and 1.0 μM, 24-hour treatment, FIG. 4)?
Answer: significantly promoted

Question: And the “relative generation rate of ISV” value ([1]; calculated from total vessel length vs PTK787 control and normal control, FIG. 5)?
Answer: dose-dependent relationship

Question: And the “Length of Blood Vessels” value ([1]; 0.01 μM)?
Answer: 287.4 ± 18.8 μm

Question: What about the “Number of Blood Vessels” value ([1]; 0.01 μM) of the same compound?
Answer: 25.0 ± 8.6

Question: And the “Length of Blood Vessels” value ([1]; 0.1 μM)?
Answer: 359.2 ± 58.2 μm

Question: And the “Number of Blood Vessels” value ([1]; 0.1 μM)?
Answer: 26.1 ± 3.3

Question: And the “Length of Blood Vessels” value ([1]; 1.0 μM)?
Answer: 447.6 ± 19.5 μm

Question: And the “time until undead animals returned to normal” value (mice [8]; both, mouse, in vivo, iv)?
Answer: 10 min

Question: And the “Mortality Rate (%)” value (mice [8]; both, mouse, in vivo, iv, 320 mg/kg)?
Answer: 0%

Question: What about the “Mortality Rate (%)” value (mice [8]; both, mouse, in vivo, iv, 375 mg/kg) of the same compound?
Answer: 40%

Question: And the “Mortality Rate (%)” value (mice [8]; both, mouse, in vivo, iv, 400 mg/kg)?
Answer: 40%

Question: What about the “Mortality Rate (%)” value (mice [8]; both, mouse, in vivo, iv, 480 mg/kg) of the same compound?
Answer: 50%

Question: What about the “Mortality Rate (%)” value (mice [8]; both, mouse, in vivo, iv, 530 mg/kg) of the same compound?
Answer: 100%

Question: What about the “Mortality Rate (%)” value (mice [8]; both, mouse, in vivo, iv, 629 mg/kg) of the same compound?
Answer: 100%

Question: What about the “time to death after the administration” value (mice [8]; mice, rapid IV, dead animals) of the same compound?
Answer: ≤ 1 min

Question: What about the “autopsy of dead mice, vital organs (heart, liver, spleen, lung, kidney, brain, stomach, intestine)” value (mice [8]; mouse, in vivo, iv) of the same compound?
Answer: no abnormality

Question: And the LD50 ([9]; read-out: LD50 95% confidence interval)?
Answer: 370 to 486 mg/kg

Question: What about the LD50 ([9]; read-out: LD50 (Bliss method, Feiller heterogeneity correction)) of the same compound?
Answer: 424 ± 58 mg/kg

Question: What about the LD50 ([9]; read-out: LD50 (regression equation, without heterogeneity correction)) of the same compound?
Answer: 424 mg/kg

Question: And the “red blood cell hemolysis” value (red blood cells)?
Answer: no obvious hemolysis

Question: And the “inhibitory effect on ADP-induced platelet aggregation” value [2]?
Answer: significantly inhibit

Question: And the “migration of human umbilical vein endothelial cells (HUVEC)” value [10]?
Answer: could promote the migration

Question: Which results are given for `Clc1ccc(Nc2nnc(Cc3ccncc3)c3ccccc23)cc1` [PTK787, reference compound]?
Answer: Number of Blood Vessels ([1]; 0.1 μg/ml): 3.6 ± 1.3; Length of Blood Vessels ([1]; 0.1): 36.4 ± 14.2 μm

Reference: patent US10993926B2, “Use of IDHP in preparation of drug or health product for prevention and treatment of coronary atherosclerosis disease” (NORTHWEST UNIVERSITY, priority 2016, dated 2021)
